What was measured:
[1] = Long-term accelerated stability test; format: physicochemical
Experimental: Long-term accelerated test: 22 parts of crystalline form A of the compound of formula (I) each containing 1 50 g were prepared. The samples were separately put into a double-layer LDPE bag with each layer of LDPE bag sealed separately. The bag was then put into an aluminum foil bag for heat sealing. At inspection time points, the corresponding test samples were taken out, covered with bottle caps. 0-day samples were thawed to room temperature and directly analyzed. Approximately 10 mg of the test article was subjected to XRPD. The compounds were placed in the following conditions and samples were taken at different time points for determining their properties, XRPD pattern, content and related substances.

[2] = Hygroscopicity study (DVS); format: physicochemical
Experimental: Instrument model: SMS DVS Advantage
Test conditions: crystalline form A of the compound of formula (I) (10-15 mg) was placed in a DVS sample tray for testing.
The DVS parameters are as follows: • Temperature: 25° C. • Balancing: dm/dt=0.01%/min (shortest: 10 min, longest: 180 min) • Drying: drying at 0% RH for 120 min • RH (%) measurement gradient: 10% • RH (%) measurement gradient range: 0%-90%-0%

[3] = Influencing factor (high temperature, high humidity) and irradiation stability tests; format: physicochemical
[4] = system: MDA-MB-231 triple negative breast cancer CDX; experiment: In vivo efficacy study 1, MDA-MB-231 triple negative breast cancer CDX model; design: species or system BALB/c nude mice
Experimental: (§1) In vivo efficacy study was conducted on BALB/c nude mice by subcutaneously implanting human tumor cell line-derived xenograft (CDX) from MDA-MB-231 triple negative breast cancer patients
(§2) BALB/c nude mice, female, aged 6-8 weeks, about 18-22 g, were kept in a special pathogen-free environment and in separate ventilated cages (3 mice per cage). All cages, bedding and water were disinfected prior to use. All animals had free access to standard certified commercial laboratory diets. 48 mice were purchased from Shanghai BK Laboratory Animal Co., LTD. for the study. Each mouse was implanted subcutaneously in the right flank with cancer cells (10×10^6 cells in 0.2 mL of phosphate buffered saline) for tumor growth. The mice were administered when the mean tumor volume reached about 147 mm^3. The test compounds were administered orally at a daily dose of 30 mg/kg. Tumor volume was measured every 3 days with a two-dimensional caliper, and the volume was measured in mm^3 and calculated according to the following formula: V=0.5×a×b^2, where a and b are the long and short diameters, respectively, of the tumor. Anti-tumor efficacy was determined by dividing the mean tumor increase volume of compound-treated animals by the mean tumor increase volume of untreated animals

XIAP BIR3 = target: T1, XIAP BIR3 (Homo sapiens, UniProt P98170); experiment: XIAP BIR3 fluorescence polarization binding assay; conditions: 5 nM probe, 30 nM XIAP BIR3
T1 construct: isolated BIR3 domain of XIAP (amino acids 255-356; XIAP BIR3); His; GST; purchased RBC APT-11-374; host or cells: E. coli
Experimental: (§3) Buffer system (a buffer for cIAP1 BIR3 or XIAP BIR3): 0.1 mollL potassium phosphate, pH 7.5, 0.1% bovine serum albumin, 0.005% Triton X-100 and 1% dimethyl sulfoxide.
(§4) Probe: ARPFAQ-K(5-FAM)-NH2.
(§5) XIAP-BIR3-his: RBC (Cat# APT-11-374), isolated BIR3 domain of XIAP (amino acids 255-356; XIAP BIR3) expressed by E. coli as GST-fusion protein. Condition: 5 nM ARPFAQ-K(5-FAM)-NH2, 20 nM cIAP1 BIR3 and 30 nM XIAP BIR3.
(§6) Firstly, fresh buffer of cIAP1 BIR3 or XIAP BIR3 was prepared, and mixed with 2 folds of cIAP1 BIR3 or XIAP BIR3 solution. A solution of test compound completely dissolved in 100% DMSO via ultrasonication was added to the buffer containing cIAP1 BIR3 or XIAP BIR3. The mixture was added with 2 folds of probes, mixed and incubated for 60 min in the dark at room temperature. Fluorescence polarization was measured and mP value was calculated, finally giving an IC50 value.

[5] = system: MDA-MB-231 triple negative breast cancer CDX; experiment: In vivo efficacy study 2, MDA-MB-231 triple negative breast cancer CDX model; design: species or system BALB/c nude mice
Experimental: as §1
as §2, with “tumor” for “cancer”, “(10×10^6” for “(10×10^6 cells”, “buffer)” for “buffered saline)”, “110” for “147”

cIAP1 BIR3 = target: T2, cIAP1 BIR3 (Homo sapiens, UniProt Q13490); experiment: cIAP1 BIR3 fluorescence polarization binding assay; conditions: 5 nM probe, 20 nM cIAP1 BIR3
T2 construct: isolated BIR3 domain of human cIAP1 (amino acids 258-363); cIAP1; His; GST; purchased RBC APT-11-370; host or cells: E. coli
Description: as §3, §4
cIAP1-BIR3-his: RBC (Cat# APT-11-370), isolated BIR3 domain of human cIAP1 (amino acids 258-363; cIAP1
BIR3) expressed by E. coli as GST-fusion protein.
as §5, §6

T1 sequence (P98170 255-356): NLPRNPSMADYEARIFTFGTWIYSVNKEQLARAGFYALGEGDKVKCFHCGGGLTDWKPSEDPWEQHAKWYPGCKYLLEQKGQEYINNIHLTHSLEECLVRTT
T2 sequence (Q13490 258-363): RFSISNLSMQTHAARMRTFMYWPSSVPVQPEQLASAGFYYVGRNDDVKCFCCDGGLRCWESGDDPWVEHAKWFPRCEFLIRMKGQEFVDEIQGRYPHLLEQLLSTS

Q: For CN[C@@H](C)C(=O)N[C@H](C(=O)N1CCC[C@H]1Cn1cc(C(C)=O)c2cc(Cl)ccc21)C1CCCCC1, which “Content of crystalline form A (%)” value ([1]; 25° C.-60% RH-3 months) is on record?
A: 98%

Q: What about the “Impurity content (%)” value ([1]; 25° C.-60% RH-3 months) of the same compound?
A: 1.16%

Q: What about the “Content of crystalline form A (%)” value ([1]; 25° C.-60% RH-6 months) of the same compound?
A: 99.5%

Q: What about the “Impurity content (%)” value ([1]; 25° C.-60% RH-6 months) of the same compound?
A: 1.12%

Q: What about the “Content of crystalline form A (%)” value ([1]; 25° C.-60% RH-9 months) of the same compound?
A: 98.2%

Q: And the “Impurity content (%)” value ([1]; 25° C.-60% RH-9 months)?
A: 1.22%

Q: What about the “Content of crystalline form A (%)” value ([1]; 25° C.-60% RH-12 months) of the same compound?
A: 100.2%

Q: What about the “Impurity content (%)” value ([1]; 25° C.-60% RH-12 months) of the same compound?
A: 1.09%

Q: And the “Content of crystalline form A (%)” value ([1]; 40° C.-75% RH-1 month)?
A: 99.3%

Q: And the “Impurity content (%)” value ([1]; 40° C.-75% RH-1 month)?
A: 1.2%

Q: And the “Content of crystalline form A (%)” value ([1]; 40° C.-75% RH-2 months)?
A: 98.1%

Q: And the “Impurity content (%)” value ([1]; 40° C.-75% RH-2 months)?
A: 1.19%

Q: What about the “Content of crystalline form A (%)” value ([1]; 40° C.-75% RH-3 months) of the same compound?
A: 97.8%

Q: What about the “Impurity content (%)” value ([1]; 40° C.-75% RH-3 months) of the same compound?
A: 1.13%

Q: And the “Content of crystalline form A (%)” value ([1]; 40° C.-75% RH-6 months)?
A: 98.5%

Q: And the “Impurity content (%)” value ([1]; 40° C.-75% RH-6 months)?
A: 1.12%

Q: And the “Content of crystalline form A (%)” value ([1]; Day 0)?
A: 98.2%

Q: What about the “Impurity content (%)” value ([1]; Day 0) of the same compound?
A: 1.19%

Q: What about the hygroscopic weight gain ([2]; 25° C. and 80% RH) of the same compound?
A: 0.72%

Q: And the Classification of hygroscopicity ([2]; weight gain at 25° C./80% RH)?
A: slightly hygroscopic

Q: And the “Content of crystalline form A (%)” value ([3]; 25° C.-92.5% RH-5 days)?
A: 99.1%

Q: And the “Impurity content (%)” value ([3]; 25° C.-92.5% RH-5 days)?
A: 1.16%

Q: And the “Content of crystalline form A (%)” value ([3]; 25° C.-92.5% RH-10 days)?
A: 98.8%

Q: And the “Impurity content (%)” value ([3]; 25° C.-92.5% RH-10 days)?
A: 1.13%

Q: What about the “Content of crystalline form A (%)” value ([3]; 25° C.-92.5% RH-30 days) of the same compound?
A: 99.2%

Q: What about the “Impurity content (%)” value ([3]; 25° C.-92.5% RH-30 days) of the same compound?
A: 1.19%

Q: And the “Content of crystalline form A (%)” value ([3]; 60° C.-5 days)?
A: 99%

Q: What about the “Impurity content (%)” value ([3]; 60° C.-5 days) of the same compound?
A: 1.16%

Q: And the “Content of crystalline form A (%)” value ([3]; 60° C.-10 days)?
A: 98.2%

Q: What about the “Impurity content (%)” value ([3]; 60° C.-10 days) of the same compound?
A: 1.14%

Q: And the “Content of crystalline form A (%)” value ([3]; 60° C.-30 days)?
A: 99.1%

Q: What about the “Impurity content (%)” value ([3]; 60° C.-30 days) of the same compound?
A: 1.19%

Q: And the “Content of crystalline form A (%)” value ([3]; Day 0)?
A: 98.2%

Q: What about the “Impurity content (%)” value ([3]; Day 0) of the same compound?
A: 1.19%

Q: What about the “Content of crystalline form A (%)” value ([3]; Irradiation-5 days) of the same compound?
A: 97.8%

Q: And the “Impurity content (%)” value ([3]; Irradiation-5 days)?
A: 1.12%

Q: What about the “Content of crystalline form A (%)” value ([3]; Irradiation-10 days) of the same compound?
A: 99.3%

Q: And the “Impurity content (%)” value ([3]; Irradiation-10 days)?
A: 1.13%

Q: And the “Crystalline form stability by XRPD versus day 0” value ([3]; the various test conditions of Tables 4 and 5)?
A: stable

Q: What does the source list for CN[C@@H](C)C(=O)N[C@H](C(=O)N1CCC[C@H]1Cn1cc(C(C)=O)c2cc(Cl)ccc21)C1CCCCC1 [Compound of formula (I)]?
A: Tumor volume (mm^3) ([4]; 6 days, 30 mg/kg oral daily): 214 mm^3; Tumor volume (mm^3) ([4]; 13 days, 30 mg/kg oral daily): 282 mm^3; Tumor volume (mm^3) ([4]; 20 days, 30 mg/kg oral daily): 810 mm^3; Tumor volume (mm^3) ([4]; Day 0, 30 mg/kg oral daily): 147 mm^3; IC50 (XIAP BIR3): 29.9 nM; Tumor volume (mm^3) ([5]; 5 days, 30 mg/kg oral daily): 111 mm^3; Tumor volume (mm^3) ([5]; 12 days, 30 mg/kg oral daily): 86 mm^3; Tumor volume (mm^3) ([5]; 20 days, 30 mg/kg oral daily): 177 mm^3; Tumor volume (mm^3) ([5]; Day 0, 30 mg/kg oral daily): 110 mm^3; IC50 (cIAP1 BIR3): 5 nM

From patent US20220177453A1, “CRYSTALLIZATION OF SMAC MIMIC USED AS IAP INHIBITOR AND PREPARATION METHOD THEREOF” (CHIA TAI TIANQING PHARMACEUTICAL GROUP CO., LTD., priority 2019, published 2022)
